The test system of series [1] is Aphis craccivora (Cowpea Aphid). The series is described as follows: Example B8: Aphis craccivora, mixed population, systemic/feeding (roots of pea seedlings in test solution). The settings on record: 144 h, read-out: activity (mortality). The series is classed as in vivo. The source says: (§1) Activity Against Aphis craccivora (Cowpea Aphid)
(Mixed Population, Systemic/Feeding)
6 days later, samples are checked for mortality.

The subject of series [2] is Myzus persicae (Green Peach Aphid). The series is described as follows: Example B11: Myzus persicae, mixed population, feeding/residual contact activity (sprayed pepper plants). The series is classed as in vivo. The settings on record: 144 h, spray chamber, 6 days after treatment, read-out: activity against Myzus persicae (mortality).
Series [3] deals with Nilaparvata lugens (Brown Rice Planthopper). In words: Example B6: Nilaparvata lugens, larvicide, feeding/contact (rice seedlings). To be noted: in Oryza sativa, read-out: activity (mortality, growth regulation, effects on F1 generation).
In series [4] the test system is Myzus persicae (Green Peach Aphid). The series is described as follows: Example B10: drench activity against Myzus persicae (pea seedlings in field soil). To be noted: 168 h, read-out: drench activity (mortality).
Series [5] deals with Tetranychus urticae (Two-Spotted Spider Mite). To be noted: foliar, 192 h, read-out: activity (egg, larval and adult mortality).
The test system of series [6] is Myzus persicae (Green Peach Aphid). The series is described as follows: Example B1: Myzus persicae, mixed population, feeding/residual contact activity, preventive (sprayed sunflower leaf discs). The settings on record: foliar, 144 h, read-out: activity (mortality).
For series [7] the test system is unchanged. The settings on record: 144 h, read-out: activity (mortality).
Series [8] concerns Thrips tabaci (Onion Thrips). The settings on record: foliar, 144 h, read-out: activity (mortality).
Series [9] has as its system Aphis craccivora (Cowpea Aphid). In words: whole plant or invertebrate. The series is classed as in vivo. The settings on record: 144 h, read-out: activity (mortality).
Description: as §1
(Mixed Population, Contact/Feeding)
6 days after treatment, samples are checked for mortality.

Series [10] shares this test system. The series is described as follows: whole plant or invertebrate. To be noted: in Phaseolus vulgaris, 120 h, read-out: translaminar activity (mortality).

Read-outs that look alike come from different tables or passages of the source.

This passage reports mortality and melting point results from US8574607B2, “Spiroheterocyclic thiofuran dione derivatives” (Syngenta Crop Protection, Inc., priority 2009, dated 2013).

On to `CCOC(=O)OC1=C(c2c(C)cc(Cl)cc2C)C(=O)OC12CCN(OC)CC2` [P1.11], for which the mortality at 25 ppm was over 80% in series [1] (25 ppm, roots in test solution, 6 days) and over 80% in series [4]. Also, in [2], the mortality at 200 ppm was at least 80%. Besides, the mortality at 400 ppm in [3], in series [5], in series [6] and in [7] was over 80% in each case.

In the case of `CCOC(=O)OC1=C(c2ccc(C)cc2C)C(=O)OC12CCN(OC)CC2` [P1.13], the mortality at 200 ppm in [2] was at least 80%. The mortality at 400 ppm in series [8], in series [6] and in series [7] was over 80% each time.

Usually melting point stands for the temperature, or range, at which the solid turns liquid. On to `CCOC(=O)OC1=C(c2cc(C)ccc2OC)C(=O)OC12CCN(OC)CC2` [P1.16], for which the melting point fell in the range of 81 to 83 °C.

`CCOC(=O)OC1=C(c2c(Cl)cc(Br)cc2Cl)C(=O)OC12CCN(OC)CC2` [P1.30] gave a melting point of 122 to 125 °C.

Take `CCOC(=O)OC1=C(c2c(C)cc(C)c(Br)c2C)C(=O)OC12CCN(OC)CC2` [P1.39]: the melting point was 52 to 54 °C.

Compound `CCOC(=O)OC1=C(c2c(C)cccc2C)C(=O)OC12CCN(OC)CC2` [P1.40] came in with a melting point of 93 to 94 °C.

`CON1CCC2(CC1)OC(=O)C(c1cc(C)c(C)cc1C)=C2O` [P2.2, 4-Hydroxy-8-methoxy-3-(2,4,5-trimethyl-phenyl)-1-oxa-8-aza-spiro[4.5]dec-3-en-2-one]: in [2], the mortality at 200 ppm was at least 80%. Also, the mortality at 400 ppm in series [8], in [6] and in series [7] was over 80% throughout.

Turning to `CON1CCC2(CC1)OC(=O)C(c1c(C)cc(C)cc1C)=C2O` [P2.3, 4-hydroxy-8-methoxy-3-(2,4,6-trimethyl-phenyl)-1-oxa-8-aza-spiro[4.5]dec-3-en-2-one], the mortality at 400 ppm in [9], in series [10], in series [3], in series [5], in series [6] and in [7] was over 80% throughout. In addition, the mortality at 25 ppm in [1] and in [4] was over 80% throughout.
